The record followed here is ChEMBL document CHEMBL1146176, “Synthesis and anti-microbial activity of pyrazolylbisindoles--promising anti-fungal compounds” (2006).

For orientation: Inhibition means the relative decrease from the control value, in per cent. A higher Inhibition goes with a response far below the control. Broadly, the inhibition is the change of the read-out against control, counted positive when it falls. A lower inhibition goes with little suppression.

What all share (format): functional
Test [1] relates to Curvularia lunata. In words: Antifungal activity against Curvularia lunata at 1 mmol after 48 hrs relative to control.
In test [2] the test system is Staphylococcus epidermidis. In words: Inhibition of growth of Staphylococcus epidermidis at 0.622 mg/ml after 48 hrs. The note with it: read-out: IZ.
For test [3], the system named is Thanatephorus cucumeris. Put plainly: Antifungal activity against Rhizoctonia solani at 1 mmol after 48 hrs.
In test [4] the test system is Candida albicans. In words: Antimicrobial activity against Candida albicans at 1 mmol after 48 hrs.
Test [5] concerns Pseudomonas aeruginosa. Put plainly: Inhibition of growth of Pseudomonas aeruginosa at 0.622 mg/ml after 48 hrs relative to control.
For test [6], the system named is Staphylococcus epidermidis. Put plainly: Inhibition of growth of Staphylococcus epidermidis at 0.622 mg/ml after 48 hrs relative to control.
The test system of test [7] is Thanatephorus cucumeris. Put plainly: Antifungal activity against Rhizoctonia solani at 1 mmol after 48 hrs relative to control.
For test [8], the system named is Pseudomonas aeruginosa. Put plainly: Antimicrobial activity against Pseudomonas aeruginosa at 1 mmol after 48 hrs.
Test [9] relates to Staphylococcus epidermidis. In words: Antimicrobial activity against Staphylococcus epidermidis at 1 mmol after 48 hrs.
Test [10] relates to Curvularia lunata. In words: Antifungal activity against Curvularia lunata at 1 mmol after 48 hrs.
The test system of test [11] is Pseudomonas aeruginosa. In words: Inhibition of growth of Pseudomonas aeruginosa at 0.622 mg/ml after 48 hrs. The note with it: read-out: IZ.
The test system of test [12] is Candida albicans. Put plainly: Antimicrobial activity against Candida albicans at 0.622 mg/ml after 48 hrs relative to control.
In test [13] the test system is Candida albicans. In words: Antimicrobial activity against Candida albicans at 0.622 mg/ml after 48 hrs. The conditions noted are these: read-out: IZ.
For test [14], the system named is Pseudomonas aeruginosa. In words: Antimicrobial activity against Pseudomonas aeruginosa at 1 mmol after 48 hrs relative to control.
Test [15] concerns Candida albicans. In words: Antimicrobial activity against Candida albicans at 1 mmol after 48 hrs relative to control.
Test [16] relates to Staphylococcus epidermidis. Put plainly: Antimicrobial activity against Staphylococcus epidermidis at 1 mmol after 48 hrs relative to control.
Test [17] relates to Curvularia lunata. Put plainly: Antifungal activity against Curvularia lunata at 0.652 mg/ml after 48 hrs relative to control.
In test [18] the test system is Curvularia lunata. In words: Antifungal activity against Curvularia lunata at 0.652 mg/ml after 48 hrs. The conditions noted are these: read-out: IZ.
In test [19] the test system is Thanatephorus cucumeris. In words: Antifungal activity against Rhizoctonia solani at 0.652 mg/ml after 48 hrs relative to control.
Test [20] deals with Thanatephorus cucumeris. In words: Antifungal activity against Rhizoctonia solani at 0.652 mg/ml after 48 hrs. The conditions noted are these: read-out: IZ.

As to `Brc1ccc2[nH]cc(C(c3cn(-c4ccccc4)nc3-c3ccccc3)c3c[nH]c4ccc(Br)cc34)c2c1`, the values for the Inhibition (in the test with Curvularia lunata [1]; in test [6]; with Thanatephorus cucumeris [7]) were 47.8%, ≤ 23.3% and 41.1%, respectively. Further, the values for the zone of inhibition at 622 µg/mL (in test [2]; in the test with Pseudomonas aeruginosa [11]; in the test on Candida albicans [13]) were 21 mm, 18 mm and 27 mm, respectively. Further, the “inhibition zone (IZ)” value turned out to be 5.3 cm in the test with Thanatephorus cucumeris [3]; 2.7 cm with Candida albicans [4]; 1.8 cm in the test on Pseudomonas aeruginosa [8]; 2.1 cm in [9]; 4.7 cm in the test on Curvularia lunata [10]. Also, the values for the inhibition at 622 µg/mL in the test with Pseudomonas aeruginosa [5] and in the test on Candida albicans [12] were 20% and 30%, respectively.
Take `COc1ccc(-c2nn(-c3ccccc3)cc2C(c2c[nH]c3ccc([N+](=O)[O-])cc23)c2c[nH]c3ccc([N+](=O)[O-])cc23)cc1`: the Inhibition in the test with Curvularia lunata [1] was found to be 84.4%; in the test with Thanatephorus cucumeris [7], 53.3%; in the test with Pseudomonas aeruginosa [14] it was 0%; with Candida albicans [15], 0%; in [16], 0%. The “inhibition zone (IZ)” value in the test on Thanatephorus cucumeris [3] is reported as 4.8 cm; in the test on Candida albicans [4], 0 cm; in the test with Pseudomonas aeruginosa [8] it was 0 cm; in test [9], 0 cm; in the test on Curvularia lunata [10], 1.4 cm.
As for `Clc1ccc(-c2nn(-c3ccccc3)cc2C(c2c[nH]c3ccc(Br)cc23)c2c[nH]c3ccc(Br)cc23)cc1`, the Inhibition in the test with Curvularia lunata [1] is on record as 15.6%; with Thanatephorus cucumeris [7], 17.8%; with Pseudomonas aeruginosa [14], 0%; with Candida albicans [15], 6.7%; in test [16], 0%. Moreover, the “inhibition zone (IZ)” value is listed as 7.4 cm in the test with Thanatephorus cucumeris [3]; 0.6 cm with Candida albicans [4]; 0 cm in the test on Pseudomonas aeruginosa [8]; 0 cm in test [9]; 7.6 cm in the test on Curvularia lunata [10].
With `COc1ccc(-c2nn(-c3ccccc3)cc2C(c2c[nH]c3ccc(Br)cc23)c2c[nH]c3ccc(Br)cc23)cc1`, the inhibition at 652 µg/mL was 96.7% with Curvularia lunata [17] and 93.9% with Thanatephorus cucumeris [19]. For the same compound, the zone of inhibition at 652 µg/mL in the test with Curvularia lunata [18] turned out to be 3 mm; in the test with Thanatephorus cucumeris [20], 5 mm. The “inhibition zone (IZ)” value with Candida albicans [4] stood at 0 cm; in the test with Pseudomonas aeruginosa [8], 1.4 cm; in test [9], 0 cm. Moreover, the Inhibition in the test on Pseudomonas aeruginosa [14] is given as 15.6%; in the test on Candida albicans [15], 0%; in test [16], 0%.
For the compound `O=[N+]([O-])c1ccc2[nH]cc(C(c3cn(-c4ccccc4)nc3-c3ccccc3)c3c[nH]c4ccc([N+](=O)[O-])cc34)c2c1`, the Inhibition in the test with Curvularia lunata [1] is given as 0%; with Thanatephorus cucumeris [7], 0%; with Pseudomonas aeruginosa [14], 14.4%; with Candida albicans [15], 0%; in [16] it was 0%. Further, the “inhibition zone (IZ)” value in the test with Thanatephorus cucumeris [3] amounted to 9 cm; in the test with Candida albicans [4] it was 0 cm; in the test on Pseudomonas aeruginosa [8], 1.3 cm; in [9] it was 0 cm; in the test with Curvularia lunata [10], 9 cm.
Regarding `CCn1c(-c2ccccc2)c(C(c2cn(-c3ccccc3)nc2-c2ccc(Cl)cc2)c2c(-c3ccccc3)n(CC)c3ccccc23)c2ccccc21`, the Inhibition with Curvularia lunata [1] is recorded as 42.2%; with Thanatephorus cucumeris [7], 18.8%; with Pseudomonas aeruginosa [14], 15.6%; in the test on Candida albicans [15] it was 5.6%; in [16], 15.6%. Moreover, the “inhibition zone (IZ)” value amounted to 7.3 cm with Thanatephorus cucumeris [3]; 0.5 cm with Candida albicans [4]; 1.4 cm in the test on Pseudomonas aeruginosa [8]; 1.4 cm in test [9]; 5.2 cm in the test with Curvularia lunata [10].
Take `CCn1c(-c2ccccc2)c(C(c2cn(-c3ccccc3)nc2-c2ccc(Br)cc2)c2c(-c3ccccc3)n(CC)c3ccccc23)c2ccccc21`: the Inhibition in the test with Curvularia lunata [1] amounted to 13.3%; in the test with Thanatephorus cucumeris [7] it was 16.7%; in the test with Pseudomonas aeruginosa [14], 0%; with Candida albicans [15] it was 0%; in test [16], 7.9%. Also, the “inhibition zone (IZ)” value with Thanatephorus cucumeris [3] amounted to 7.5 cm; in the test on Candida albicans [4], 0 cm; in the test with Pseudomonas aeruginosa [8], 0 cm; in test [9], 0.7 cm; in the test on Curvularia lunata [10] it was 7.8 cm.
As for `Brc1ccc(-c2nn(-c3ccccc3)cc2C(c2c[nH]c3ccc(Br)cc23)c2c[nH]c3ccc(Br)cc23)cc1`, the Inhibition in the test with Curvularia lunata [1] is on record as 91.1%; with Thanatephorus cucumeris [7], 81.1%; in the test with Pseudomonas aeruginosa [14] it was 16.7%; in the test on Candida albicans [15] it was 24.4%; in test [16], 0%. Moreover, the “inhibition zone (IZ)” value was determined as 1.7 cm in the test with Thanatephorus cucumeris [3]; 2.2 cm with Candida albicans [4]; 1.5 cm with Pseudomonas aeruginosa [8]; 0 cm in [9]; 0.8 cm with Curvularia lunata [10].
